Reference: patent publication EP0074307A1, “Mixed bromo-iodo benzene compounds and contrast products containing them” (Société dite: GUERBET S.A., priority 1981, dated 1983)

How the values were obtained:
[1] = test system: complément; experiment: Complement activation (hemolytic concentration 50, CH 50); type: biochemical; parameters: unit not given here; settings: higher CH 50 = less complement activation, better tolerance
Excerpt: Les travaux d'Elliott C. Lasser (Investig. Radiol., 1974, 9, 4 6A) ont montré que les produits de contraste activent le complément, qui est un ensemble de protéines sériques dont l'activation peut conduire à des réactions anaphylactiques graves.
La mesure de cette activation est effectuée par la détermination de la concentration hémolytique 50 désignée CH 50. On estime que les produits moins activateurs du complément, c'est-à-dire ayant une CH 50 plus élevée , provoquent moins d'effets secondaires de type anaphylactiques et présentent donc une meilleure tolérance.

[2] = X-ray opacity measured via film densitometry, relative to Hexabrix; type: physicochemical; settings: aqueous solutions of methylglucamine salts, same number of moles as Hexabrix (32 % iodine), X-ray source 70 kV
Excerpt: L'opacité a été mesurée indirectement à l'aide de l'impression produite sur un film photographique par un faisceau de rayons X traversant une cuve contenant une solution aqueuse des composés. La transparence du film après développement a été mesurée à l'aide d'un densi- tomètre optique. Dans chaque cas, la mesure a été effectuée sur le même film et avec la même source de rayons X (70 kV) par comparaison avec un produit opacifiant servant de référence.
Comme produit de référence, on a utilisé l'Hexa- brix qui est une solution de sels de sodium et de méthyl- glucamine de l'acide ioxaglique à 32 % en iode.
Les composés selon l'invention ont été testés sous forme de solutions aqueuses de leurs sels de méthyl- glucamine contenant le même nombre de moles de composés que l'Hexabrix.

Row | Structure (SMILES) | CH 50 [1] | Opacité relative/Hexabrix [2]
1 | CNC(=O)c1c(Br)c(C(=O)NCC(=O)Nc2c(I)cc(I)c(C(=O)O)c2I)c(Br)c(N(C)C(C)=O)c1Br [compound 8] | 11,5 | 
2 | CNC(=O)c1c(Br)c(C(=O)NCC(=O)Nc2c(I)c(C(=O)O)c(I)c(C(=O)NCCO)c2I)c(Br)c(N(C)C(C)=O)c1Br [Composé 2, acide triiodo-2,4,6 N-hydroxyéthylcarbamoyl-3 (tribromo-2,4,6 N-méthylcarbamoyl-3 N-méthyl N-acétylamino-5 benzoyl) glycylamino-5 benzoïque] | 20,8 | 0,92
3 | CNC(=O)c1c(I)c(NC(=O)CNC(=O)c2c(I)cc(I)c(N(C)C(C)=O)c2I)c(I)c(C(=O)O)c1I [Analogue complètement iodé du composé 5, reference compound] | 3,8 | 
4 | CNC(=O)c1c(I)c(NC(=O)CNC(=O)c2c(Br)cc(Br)c(N(C)C(C)=O)c2Br)c(I)c(C(=O)O)c1I [compound 5] | 7,4 | 0,92
5 | CNC(=O)c1c(Br)c(C(=O)NCCC(=O)Nc2c(I)cc(I)c(C(=O)O)c2I)c(Br)c(N(C)C(C)=O)c1Br [compound 12] | 11,0 | 
6 | CNC(=O)c1c(Br)c(C(=O)NCCCC(=O)Nc2c(I)c(C(=O)O)c(I)c(C(=O)NCCO)c2I)c(Br)c(N(C)C(C)=O)c1Br [compound 13] | 15,3 | 
7 | CNC(=O)c1c(I)c(C(=O)NCC(=O)Nc2c(Br)c(C(=O)O)c(Br)c(C(=O)NCCO)c2Br)c(I)c(N(C)C(C)=O)c1I [compound 1, acide tribromo-2,4,6 N-hydroxyéthylcarbamoyl-3 (triiodo-2,4,6 N-méthylcarbamoyl-3 N-méthyl N-acétylamino-5 benzoyl) glycylamino-5 benzoique] | 20,2 | 0,91
8 | CNC(=O)c1c(I)c(C(=O)NCC(=O)Nc2c(Br)cc(Br)c(C(=O)O)c2Br)c(I)c(N(C)C(C)=O)c1I [compound 7] | 10,0 | 
